Tests used:
[1] = test system: pentagastrin evoked gastric secretion; experiment: Inhibition of pentagastrin evoked gastric secretion in the chronic fistula dog; assay type: in vivo; details: Dose 0.8 μg/ml./min., infusion 0-60 min, relative to placebo trial
Procedure: Compounds were tested for their ability to inhibit pentagastrin evoked gastric secretion in the chronic fistula dog. Female beagle dogs with a chronic gastric fistula were given pentagastrin (2.5 μg./kg./hour, i.v. from -60 to 120 min.) and gastric outputs were collected via the fistula cannula. Samples were analyzed at 30 minute intervals for volume (ml.) and titratable acid (mEq/L) (Titration to pH 7 with 0.01 N NaOH); total acid output (mEq) was calculated as the production of output volume and acid concentration. Test compounds were infused at a constant rate from 0 to 60 minutes. Data have been expressed as percent change of total acid output relative to a placebo trial in the same animals.

insulin = experiment: Insulin inhibition in vivo: portal vein insulin in anesthetized rats; parameters: species or system rat; details: multiples or fractions of the effect of somatostatin (=1), via external jugular vein, portal vein blood after 5 minutes
Procedure: Analogs of somatostatin were compared to somatostatin in their ability to decrease the levels of portal vein glucagon and insulin in anesthetized rats. Male Sprague-Dawley rats (Charles River CD) weighing 160-200 g were anethetized with urethane (150 mg/100 g of body weight; Aldrich). Saline or peptides were administered via the external jugular vein. After 5 minutes, the portal vein was exposed, and blood was collected via syringe containing 3 mg of EDTA and placed in chilled tubes containing 100 μl of Trasylol (FBA Pharmaceuticals) for subsequent hormone analysis. Plasma levels of glucagon were determined by the method of Faloona and Unger, Methods of Hormone Radioimmunoassay, Jaffe and Behrman (Eds), Academic Press, New York, Vol. II, pp. 257-527 (1976), utilizing glucagon antisera 30K obtained from R. Unger (Dallas, Tx). Plasma levels of insulin were determined by a modification of the procedure of Herbert et al., J. Clin. Endocrinol. Metab., 25, 1375-1384 (1965).

growth hormone release = experiment: Growth Hormone--in vitro: growth hormone release inhibition in cultured rat pituitary cells; assay type: cell-based; details: multiples or fractions of the effect of somatostatin (=1), 4 hours incubation
Procedure: Rat pituitaries were isolated according to the procedures of Vale and Grant "In vitro Pituitary Hormone Secretion Assay for Hypophysioprivic Substances" in Methods in Enzymology. Vol.XXXVII,eds. O'Malley, B. W. and Hardman, J. G. (Academic Press, Inc., New York) pp. 5-93 (1975).
After 4 days in culture, the cells were washed and incubated for 4 hours in Dulbecco modified Eagle's medium in the presence or absence of graded doses of each analog or somatostatin. The medium was then collected for subsequent growth hormone determination by a double antibody radioimmunoassay for rat growth hormone.

C[C@H](N)C(=O)NCC(=O)N[C@H]1CSSC[C@@H](C(=O)O)NC(=O)[C@H](CO)NC(=O)[C@H]([C@@H](C)O)NC(=O)[C@H](Cc2ccccc2)NC(=O)[C@H]([C@@H](C)O)NC(=O)[C@H](CCCCN)NC(=O)[C@H](Cc2c[nH]c3ccccc23)NC(=O)[C@H](Cc2ccccc2)NC(=O)[C@H](Cc2ccccc2)NC(=O)[C@H](CC(N)=O)NC(=O)[C@H](CCCCN)NC1=O [Somatostatin]
Gastric Secretion % Inhibition Acid Concentration 0-30 ([1]; interval 0-30 min): 16%
Gastric Secretion % Inhibition Vol. 0-30 ([1]; interval 0-30 min): 85%
Gastric Secretion % Inhibition Acid Concentration 30-60 ([1]; interval 30-60 min): 77%
Gastric Secretion % Inhibition Vol. 30-60 ([1]; interval 30-60 min): 97%
Gastric Secretion % Inhibition Acid Concentration 60-90 ([1]; interval 60-90 min): 61%
Gastric Secretion % Inhibition Vol. 60-90 ([1]; interval 60-90 min): 81%
Gastric Secretion % Inhibition Acid Concentration 90-120 ([1]; interval 90-120 min): 14%
Gastric Secretion % Inhibition Vol. 90-120 ([1]; interval 90-120 min): 37%
Insulin Inhibition In Vivo (insulin): 1
Growth Hormone Release Inhibition In Vitro (growth hormone release): 1
